Source: patent publication US20250002855A1, “METHODS FOR EXPANDING T CELLS FOR THE TREATMENT OF CANCER AND RELATED MALIGNANCIES” (Immatics US, Inc., priority 2020, published 2025)

What was measured:
[1] = test system: γδ T cells; experiment: δ1 and δ2 populations by flow cytometry; type: cell-based, human; conditions: Day 21; culture without vs with zoledronate (5 μM)
From the text: Cells were harvested on Day 21 and analyzed by flow cytometry to determine δ1 and δ2 populations.
The presence of δ1 cells as a percentage of live cells is shown for two donors in FIG. 18A & 18B.

[2] = test system: tumor-infiltrating lymphocytes; conditions: in the presence of IL-21; after 2 weeks of culture; cited from earlier work

## O=P(O)(O)C(O)(Cn1ccnc1)P(=O)(O)O [zoledronate]
[1]
  δ1 and δ2 populations: lack of zoledronate in the culture results in a polyclonal population

## O=C(CCCCCCC(=O)Nc1ccccc1)NO [SAHA, suberoylanilide hydroxamic acid]
[2]
  Tcm αβ T cells (CD28+CD62L+): increase Tcm αβ T cells
